Laboratory results from patent US12616698B2, “Methods for reducing liver fat and for treating fatty liver disorders” (Corcept Therapeutics Incorporated, priority 2021, dated 2026).
Marks after values point to notes of the source that are not given here.

Tests used:
[1] = system: patients presumed to have NASH; test: Phase 2a study in patients with presumed NASH: liver fat by MRI-PDFF; assay type: in vivo, human
Excerpt: (§1) A Phase 2a, randomized, double-blind, placebo-controlled study (ClinicalTrials.gov Identifier: NCT03823703) was begun to assess the efficacy of two dose levels of miricorilant versus placebo in reducing liver fat in patients who were presumed to have non-alcoholic steatohepatitis (NASH), that presumption based on blood tests and noninvasive measures. Written informed consent was obtained before initiating any study-mandated procedures. The full study was planned to enroll approximately 120 patients, randomized 1:1:1 to receive daily 900 mg miricorilant:600 mg miricorilant: matching placebo.
Patients enrolled in the study were required to have consistent liver enzyme (ALT and AST) baseline measurements (established by two samples obtained at least 4 weeks and no more than six months apart), and a diagnosis of presumed NASH with fibrosis defined as meeting all of the following criteria: • a. Either: i) a historical liver biopsy within 1 year of Screening showing NASH, NAFLD Activity Score (NAS) greater than or equal to 4, and F1 to F3 fibrosis, or ii) an AST level greater than 17 U/L for women or AST level greater than 20 U/L for men AND a FibroScan liver stiffness measurement of greater than or equal to 8.5 kPa and a Controlled Attenuation Parameter (CAP) of greater than or equal to 300 dB/m in the 3 months prior to Screening or at Screening; • b. A MRI-PDFF with greater than or equal to 10% steatosis; and • c. The presence of two or more components of metabolic syndrome: type 2 diabetes treatment or fasting blood glucose greater than or equal to 126 mg/dL, BMI greater than or equal to 30 kg/m^2, hypertension treatment or blood pressure greater than or equal to 130/85, history of dyslipidemia, or waist circumference greater than or equal to 102 cm (40 in) in men and greater than or equal to 88 cm (35 in) in women.
Measures of the effectiveness of miricorilant versus placebo in reducing liver fat were assessed by magnetic resonance imaging (MRI). The change from baseline MRI measurements relative to MRI measurements taken following a course of daily miricorilant or placebo administration were assessed by magnetic resonance imaging-proton density fat fraction (MRI-PDFF). Additionally, effects of miricorilant may be assessed by measuring one or more of the following, either by comparing change from baseline after one or more days of miricorilant administration, or by comparing measurements in patients administered miricorilant versus patients administered placebo: change in liver fat assessed by MRI-PDFF; change in AST, ALT, and gamma-glutamyl transferase (GGT); change in propeptide of type III collagen (pro-C3); change in enhanced liver fibrosis (ELF) score and its components (hyaluronic acid, tissue inhibitor of metalloproteinases-1 [TIMP-1], type III procollagen [PIIINP]); change in ACTH, serum cortisol, and serum aldosterone (pharmacodynamic assessments); change in Homeostatic Model Assessment of Insulin Resistance (HOMA-IR); change in absolute body weight; and other measurements. […] For patients with diabetes, change in HbA1c and change in fasting blood glucose may be measured to assess the effects of miricorilant. Change in blood pressure may be measured in patients with high blood pressure to assess the effects of miricorilant. Pharmacokinetic (PK) parameters were estimated from steady state plasma concentrations of miricorilant.
Patients were randomized in a 1:1:1 ratio to 600 mg miricorilant, 900 mg miricorilant, or placebo. Study drug was administered once daily, orally with 8 oz (240 mL) of water, along with food. Patients were instructed to take a total of 6 tablets at approximately the same time each day. Those in the 600 miricorilant group took 4 miricorilant tablets and 2 placebo tablets. Those in the 900 miricorilant group took 6 miricorilant tablets. Those in the placebo group took 6 placebo tablets. […]

[2] = system: patients presumed to have NASH; test: Phase 2a study: liver volume and liver size by MRI; assay type: in vivo, human; conditions: for Percent Change from Baseline in Liver: liver volume
Excerpt: as §1
Patients were randomized in a 1:1:1 ratio to 600 mg miricorilant, 900 mg miricorilant, or placebo. Study drug was administered once daily, orally with 8 oz (240 mL) of water, along with food. Patients were instructed to take a total of 6 tablets at approximately the same time each day. Those in the 600 miricorilant group took 4 miricorilant tablets and 2 placebo tablets. Those in the 900 miricorilant group took 6 miricorilant tablets. Those in the placebo group took 6 placebo tablets. For the week 6 visit, patients were instructed to not take their daily study drug prior to the visit, but to bring their study drug to the site with them so that the study drug can be administered at the site.
MRI images showing the liver of a patient before (left-hand images) and after receiving daily 600 mg miricorilant (right-hand images) are presented in FIGS. 3A, 3B, and 3C.

[3] = one patient, 600 mg per day, MRI-PDFF 26 days after cessation of study drug
[4] = patient 208-4020, 900 mg daily, 30 days on study drug, MRI 19 days after dose ended
[5] = patient 211-4002, 900 mg daily, 31 days on study drug, MRI 64 days after dose ended
[6] = patient 214-4007, 900 mg daily, 44 days on study drug, MRI 16 days after dose ended
[7] = patient 232-4016, 600 mg daily, 39 days on study drug, MRI 26 days after dose ended
[8] = patient 233-4018, 600 mg daily, 34 days on study drug, MRI 21 days after dose ended

Structure (SMILES): O=c1[nH]c(=O)c(Cc2cccc(C(F)(F)F)c2)c([C@H]2CC[C@H](c3ccccc3)CC2)[nH]1 [miricorilant, (E)-6-(4-Phenylcyclohexyl)-5-(3-trifluoromethylbenzyl)-1H-pyrimidine-2,4-dione]
- Liver fat levels ([1]; 30 or 34 days of treatment, two of five patients administered miricorilant): normalized
- Liver fat reductions ([1]; found in four patients (Table 3)): greater than 30%
- Resolution of fatty liver (MRI-PDFF <5%) ([1]; one patient (233-4018, 600 mg) of the four with liver fat decreases): *complete resolution of fatty liver (MRI-PDFF <5%)
- MRI PDFF value increase as compared to baseline [1, 3]: 5
- Relative increase in liver fat from baseline [1, 3]: 27.9%
- % Change in liver fat [1, 4]: −65.3%
- Change in MRI PDFF [1, 4]: −11.5
- MRI PDFF value ([1]; patient 208-4020, 900 mg daily, 30 days on study drug, MRI 19 days after dose ended, screening value 17.6): 6.1
- Relative change from baseline in % liver fat ([1]; patient 208-4020, 900 mg, 30 days on treatment): −65.3%
- Liver fat Follow-up ([1]; patient 208-4020, 900 mg, 30 days on treatment, baseline 17.6): 6.1%
- % Change in liver fat [1, 5]: −38.5%
- Change in MRI PDFF [1, 5]: −10.7
- MRI PDFF value ([1]; patient 211-4002, 900 mg daily, 31 days on study drug, MRI 64 days after dose ended, screening value 27.8): 17.1
- Relative change from baseline in % liver fat ([1]; patient 211-4002, 900 mg, 31 days on treatment): −38.5%
- Liver fat Follow-up ([1]; patient 211-4002, 900 mg, 31 days on treatment, baseline 27.8): 17.1%
- % Change in liver fat [1, 6]: −47.0%
- Change in MRI PDFF [1, 6]: −13.3
- MRI PDFF value ([1]; patient 214-4007, 900 mg daily, 44 days on study drug, MRI 16 days after dose ended, screening value 28.3): 15.0
- Relative change from baseline in % liver fat ([1]; patient 214-4007, 900 mg, 44 days on treatment): −47.0%
- Liver fat Follow-up ([1]; patient 214-4007, 900 mg, 44 days on treatment, baseline 28.3): 15.0%
- % Change in liver fat [1, 7]: +27.9%
- Change in MRI PDFF [1, 7]: 5.0
- MRI PDFF value ([1]; patient 232-4016, 600 mg daily, 39 days on study drug, MRI 26 days after dose ended, screening value 17.9): 22.9
- % Change in liver fat [1, 8]: −73.8%
- Change in MRI PDFF [1, 8]: −9.3
- MRI PDFF value ([1]; patient 233-4018, 600 mg daily, 34 days on study drug, MRI 21 days after dose ended, screening value 12.6): 3.3
- Relative change from baseline in % liver fat ([1]; patient 233-4018, 600 mg, 34 days on treatment): −73.8%
- Liver fat Follow-up ([1]; patient 233-4018, 600 mg, 34 days on treatment, baseline 12.6): 3.3* %
- Mean liver fat content after treatment (FIG. 3C) ([1]; patient with the greatest reduction, 600 mg daily, baseline 12.6%): 3.3%
- Follow-Up Liver Volume ([2]; Patient 1 (responder), 900 mg, baseline 1606 mL): 1303 mL
- Follow-Up Liver Volume ([2]; Patient 2 (responder), 900 mg, baseline 1675 mL): 1314 mL
- Follow-Up Liver Volume ([2]; Patient 3 (responder), 900 mg, baseline 3857 mL): 3113 mL
- Follow-Up Liver Volume ([2]; Patient 4 (responder), 600 mg, baseline 1899 mL): 1505 mL
- Percent Change from Baseline in Liver ([2]; Patient 1 (responder), 900 mg): −18.9%
- Percent Change from Baseline in Liver ([2]; Patient 2 (responder), 900 mg): −21.6%
- Percent Change from Baseline in Liver ([2]; Patient 3 (responder), 900 mg): −19.3%
- Percent Change from Baseline in Liver ([2]; Patient 4 (responder), 600 mg): −20.7%
